Like-named read-outs stand apart in the source and are kept apart here.
Columns and labels:
[1] = RP-18 thin layer chromatography (RM); type: physicochemical; details: RP-18 F254s TLC, acetonitrile/pH 7.4 phosphate buffered saline 70:30 (v/v); RM = log (1/Rf−1)
Protocol: Thin layer chromatography was performed according to [33] on 10 × 20 cm glass-backed RP-18 F254s TLC plates from Merck, Germany (layer thickness 0.25 mm). Before use, the plates were prewashed with methanol-dichloromethane 1:1 (v/v) and dried overnight in ambient conditions. […] The chromatographic plates were developed in a vertical chromatographic chamber lined with filter paper and previously saturated with the mobile phase vapor for 20 min. The mobile phase consisted of acetonitrile/pH 7.4 phosphate buffered saline 70:30 (v/v). The development distance was 95 mm from the plate bottom edge. After development, the plates were dried at room temperature and examined under UV light (254 nm) and with the Desaga CD60 densitometer (Multiwavelength Scan, 200–300 nm at 20 nm intervals). All chromatograms were repeated in duplicate, and the mean Rf values were used in further investigations. The chromatographic parameter RM considered in these investigations was defined by Bate-Smith and Westall: RM= log (1/Rf−1).

[2] = experimental, cited from earlier work
[3] = hydrocortisone esters 17 to 27, ref 40 (Anderson et al.)
[4] = nonsteroid compounds 39 to 46, source not given

SMILES	RM [1]	logKp^exp ([2]; compounds 1 to 16)	also measured
C[C@@H]1C[C@H]2[C@@H]3CCC4=CC(=O)C=C[C@]4(C)[C@@]3(F)[C@@H](O)C[C@]2(C)[C@@]1(O)C(=O)CO [compound 1, Dexamethasone]	−0.35		
C[C@]12CCC(=O)C=C1CC[C@@H]1[C@@H]2[C@@H](O)C[C@@]2(C)[C@H]1CC[C@]2(O)C(=O)CO [compound 2, Hydrocortisone]	−0.33	−4.79	
CC(=O)[C@H]1CC[C@H]2[C@@H]3CCC4=CC(=O)CC[C@]4(C)[C@H]3CC[C@]12C [compound 3, Progesterone]	0.60		
C[C@]12C=CC(=O)C=C1CC[C@@H]1[C@@H]2[C@@H](O)C[C@@]2(C)[C@H]1CC[C@]2(O)C(=O)CO [compound 4, Prednisolone]	−0.33	−4.35	
C[C@]12CC[C@@H]3c4ccc(O)cc4CC[C@H]3[C@@H]1CCC2=O [compound 5, Estrone]	0.09	−2.44	
C[C@]12CCC(=O)C=C1CC[C@@H]1[C@@H]2[C@@H](O)C[C@]2(C=O)[C@@H](C(=O)CO)CC[C@@H]12 [compound 6, Aldosterone]		−4.41	
CC(=O)[C@H]1CC[C@H]2[C@@H]3CC=C4C[C@@H](O)CC[C@]4(C)[C@H]3CC[C@]12C [compound 8, Pregnenolone]		−2.82	
CC(=O)[C@@]1(O)CC[C@H]2[C@@H]3CCC4=CC(=O)CC[C@]4(C)[C@H]3CC[C@@]21C [compound 9, 17-α-Hydroxyprogesterone]		−3.22	
C[C@]12CC[C@H]3[C@@H](CCC4=CC(=O)CC[C@@]43C)[C@@H]1CC[C@@H]2C(=O)CO [compound 11, Deoxycorticosterone]		−3.34	
C[C@]12CC[C@H]3[C@@H](CCC4=CC(=O)CC[C@@]43C)[C@@H]1CC[C@@H]2O [compound 12, Testosterone]		−2.65	
C[C@]12CCC(=O)C=C1CC[C@@H]1[C@@H]2CC[C@@]2(C)[C@H]1CC[C@]2(O)C(=O)CO [compound 13, Cortexolone]		−4.12	
C[C@]12CC[C@@H]3c4ccc(O)cc4CC[C@H]3[C@@H]1CC[C@@H]2O [compound 14, Estradiol]		−2.21	
C[C@]12CCC(=O)C=C1CC[C@@H]1[C@@H]2C(=O)C[C@@]2(C)[C@H]1CC[C@]2(O)C(=O)CO [compound 16, Cortisone]		−5.00	
C[C@]12CCC(=O)C=C1CC[C@@H]1[C@@H]2[C@@H](O)C[C@@]2(C)[C@H]1CC[C@]2(O)C(=O)COC(=O)CCCCCO [compound 23, HC 6-hydroxyhexanoate]			logKp^exp [2, 3]: −3.04
COC(=O)CCCCCC(=O)OCC(=O)[C@@]1(O)CC[C@H]2[C@@H]3CCC4=CC(=O)CC[C@]4(C)[C@H]3[C@@H](O)C[C@@]21C [compound 25, HC methylpimelate]			logKp^exp [2, 3]: −2.27
CCCCCC(=O)OCC(=O)[C@@]1(O)CC[C@H]2[C@@H]3CCC4=CC(=O)CC[C@]4(C)[C@H]3[C@@H](O)C[C@@]21C [compound 26, HC hexanoate]			logKp^exp [2, 3]: −1.74
CCCCCCCC(=O)OCC(=O)[C@@]1(O)CC[C@H]2[C@@H]3CCC4=CC(=O)CC[C@]4(C)[C@H]3[C@@H](O)C[C@@]21C [compound 27, HC octanoate]			logKp^exp [2, 3]: −1.21
C[C@]12CC[C@@H]3c4ccc(OC(=O)c5ccccc5)cc4CC[C@H]3[C@@H]1CC[C@@H]2O [compound 28, Estradiol benzoate]	0.91		

SMILES	RM [1]	logKp^exp ([2]; compounds 1 to 16)	also measured
CC(=O)OCC(=O)[C@@]1(O)CC[C@H]2[C@@H]3CCC4=CC(=O)CC[C@]4(C)[C@H]3[C@@H](O)C[C@@]21C [compound 29, HC acetate]	−0.12		
CC(=O)OCC(=O)[C@H]1CC[C@H]2[C@@H]3CCC4=CC(=O)CC[C@]4(C)[C@H]3CC[C@]12C [compound 30, Deoxycortisone acetate]	0.41		
CC(=O)OCC(=O)[C@@]1(O)CC[C@H]2[C@@H]3CCC4=CC(=O)CC[C@]4(C)[C@H]3C(=O)C[C@@]21C [compound 31, Cortisone acetate]	−0.12		
CCC(=O)O[C@H]1CC[C@H]2[C@@H]3CCC4=CC(=O)CC[C@]4(C)[C@H]3CC[C@]12C [compound 32, Testosterone propionate]	0.85		
C[C@]12CCC(=O)C=C1CC[C@@H]1[C@@H]2CC[C@@]2(C)[C@H]1CC[C@]2(C)O [compound 33, Methyltestosterone]	0.41		
CCCCCCC(=O)O[C@H]1CC[C@H]2[C@@H]3CCC4=CC(=O)CC[C@]4(C)[C@H]3CC[C@]12C [compound 34, Testosterone enanthate]	1.38		
CC(=O)S[C@@H]1CC2=CC(=O)CC[C@]2(C)[C@H]2CC[C@@]3(C)[C@@H](CC[C@@]34CCC(=O)O4)[C@H]12 [compound 35, Spironolactone]	0.14		
COC(=O)[C@@H]1CC2=CC(=O)CC[C@]2(C)[C@@]23O[C@@H]2C[C@@]2(C)[C@@H](CC[C@@]24CCC(=O)O4)[C@H]13 [compound 36, Eplerenone]	−0.21		
C[C@H]1O[C@@H](O[C@H]2[C@@H](O)C[C@H](O[C@H]3[C@@H](O)C[C@H](O[C@H]4CC[C@@]5(C)[C@H](CC[C@@H]6[C@@H]5C[C@@H](O)[C@]5(C)[C@@H](C7=CC(=O)OC7)CC[C@]65O)C4)O[C@@H]3C)O[C@@H]2C)C[C@H](O)[C@@H]1O [compound 37, Digoxin]	−0.91		
C#C[C@]1(O)CC[C@H]2[C@@H]3[C@H](C)CC4=C(CCC(=O)C4)[C@H]3CC[C@@]21C [compound 38, Tibolone]	0.33		
CC(C)Cc1ccc(C(C)C(=O)O)cc1 (centres unmarked) [compound 39, Ibuprofen]	0.08		logKp^exp [2, 4]: −1.44
CNC(=C[N+](=O)[O-])NCCSCc1ccc(CN(C)C)o1 [compound 40, Ranitidine]	−0.66		
CC(=O)Oc1ccccc1C(=O)O [compound 41, Aspirin]	−0.50		logKp^exp [2, 4]: −2.14
COC(=O)c1ccc(O)cc1 [compound 42, Methylparaben]	−0.41		logKp^exp [2, 4]: −2.04
O=C(O)c1ccccc1O [compound 43, Salicylic acid]	−0.37		logKp^exp [2, 4]: −2.84
COc1ccc2c(c1)c(CC(=O)O)c(C)n2C(=O)c1ccc(Cl)cc1 [compound 44, Indomethacin]	−0.07		
CN1C(C(=O)Nc2ccccn2)=C(O)c2ccccc2S1(=O)=O [compound 45, Piroxicam]	0.00		logKp^exp [2, 4]: −3.81
COc1ccc2cc([C@H](C)C(=O)O)ccc2c1 [compound 46, Naproxen]	−0.16		
